Data taken from patent US20080312581A1, “Peptosomes for Use in Acoustically Mediated Intracellular Drug Delivery in vivo” (Biovaluation & Analysis, Inc., priority 2007, published 2008).

Test system: Henrietta Lacks (HeLa) cells and human aortic smooth muscle cells (AoSMC)
Test: Ultrasound-mediated peptosome rupture and intracellular calcein delivery, flow cytometry
Type: cell-based
Conditions: calcein released from peptosomes, contrast agent present
Text: Ultrasound. Ultrasonic energy is produced using an immersible, focused, piezoceramic transducer. In this experimental system, two different matching resistance networks are necessary, allowing production of sound at 1.0 MHz and 3.0 MHz, similar to a method known in the art (Guzmán et al., 2001a, 2001b, 2002, and 2003; and […] et al., 2006). A sinusoidal waveform is produced by, for example, programmable waveform generators (Stanford Research Instruments, Sunnyvale, Calif.) used in conjunction to control pulse length, frequency, and peak-to-peak voltage. The sinusoidal waveform is amplified by an RF broadband power amplifier (Electronic Navigation Industries, Rochester, N.Y.) before passing through a matching network and controlling the response of the transducer. The transducer is housed in a polycarbonate tank (FIG. 11 [601]) -34.5×32×40 cm; containing approximately 34 liters of deionized, distilled, and partially degassed water at room temperature (i.e., 22° C. to 23° C.). A thick acoustic absorber is mounted opposite the transducer to minimize standing-wave formation (not illustrated). […] A metal rod (606) is immediately inserted into the open end of the sample chamber and then attached to the three-axis positioning system (603), placing the sample in the desired location as determined by the hydrophone (604). […]

For O=C(O)CN(CC(=O)O)Cc1cc2c(cc1O)Oc1cc(O)c(CN(CC(=O)O)CC(=O)O)cc1C21OC(=O)c2ccccc21 [calcein, Calcein], the “calcein uptake into cells” value (mild ultrasound conditions) was “low levels” and the “calcein uptake into cells” value (moderate ultrasound conditions) was “as many as one-third of cells”.
